One series deals with VIM-1 (Pseudomonas aeruginosa (strain ATCC 15692 / DSM 22644 / CIP 104116 / JCM 14847 / LMG 12228 / 1C / PRS 101 / PAO1), UniProt A0A0F7KYQ8). Put plainly: biochemical. The note with it: CCF2-FA substrate, 30 pM enzyme, 2 hours at 25° C. Summed up: (§1)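 Fluorescence assay of metallo-β-lactamase activity using CCF2-FA, a cephalosporin-linked 7-hydroxycoumarin–fluorescein substrate. Inhibitor, enzyme and substrate were incubated together for 2 hours at 25° C. IC50 came from a 4-parameter fit of inhibition versus inhibitor concentration.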

Series [1] has as its system Pseudomonas aeruginosa MB9798 vs MB9799. Summed up:
(§2)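 PAO1 pair, broth microdilution; fixed β-lactam (imipenem/ceftazidime) at ~CLSI breakpoint + fixed class A/C BLI for AmpC; serial MBLi titration; endpoint = MBLi conc. restoring susceptibility; MB9798:MB9799 ratio = efflux liability.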

For another series, the target named is IMP-1 (Serratia marcescens, UniProt P52699). In words: biochemical. In kind it is biochemical. The note with it: CCF2-FA substrate, 2 pM enzyme, 2 hours at 25° C. Summed up:
as §1

Another series has as its target NDM-1 (Klebsiella pneumoniae, UniProt C7C422). In words: biochemical. In kind it is biochemical. The note with it: fluorescence assay, CCF2-FA substrate, 1 pM enzyme, 2 hours at 25° C.; read-out: NDM-1 IC50. Summed up:
as §1

In series [2] the test system is Pseudomonas aeruginosa efflux+ (MB9798), IMP-1. In kind it is cell-based. Details: Concentration of metallo-β-lactamase inhibitor which restores susceptibility of efflux + (MB9798) strain to imipenem: unit not given here. Conditions: C, D serine β-lactamase inhibitor closely related to relebactam; for P. aeruginosa expressing IMP-1, efflux + (MB9798) MITC95: concentration restoring susceptibility to imipenem at 2 μg/mL in the presence of a class A; for Concentration of metallo-β-lactamase inhibitor which restores susceptibility of efflux + (MB9798) strain to imipenem: imipenem at 2 μg/mL, in the presence of a class A. An outline of the steps:
as §2

Series [3] has as its system Serratia marcescens expressing IMP-1 (CL5741). It is filed as cell-based. Conditions: for Serratia marcescens expressing IMP-1 (CL5741) MITC95: with imipenem 1 μg/ml, 95% inhibition of bacterial growth; for Serratia marcescens MITC95: IMP-1 strain CL5741, with imipenem 1 μg/ml, 95% inhibition of growth. An outline of the steps: (§3)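 Imipenem 1 μg/ml + inhibitor; MBL-expressing clinical strains in 1.1×CAMHB, inoculum from saline suspension diluted 1:100; 35° C, 22–24 h; absorbance read-out.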

The test system of series [4] is Escherichia coli expressing NDM-1 (CLB30005, CLB30016). In kind it is cell-based. Conditions: with imipenem 1 μg/ml; for Escherichia coli expressing NDM-1 (CLB30016) MITC95: 95% inhibition of bacterial growth; for Escherichia coli MITC95: NDM-1 strain, 95% inhibition of growth. An outline of the steps: as §3
For series [5], the system named is Klebsiella pneumoniae expressing VIM-1 (IHMA599644). In kind it is cell-based. The note with it: for Klebsiella pneumoniae expressing VIM-1 (IHMA599644) MITC95: with imipenem 1 μg/ml, 95% inhibition of bacterial growth; for Klebsiella pneumoniae MITC95: VIM-1 strain IHMA599644, with imipenem 1 μg/ml, 95% inhibition of growth. An outline of the steps:
as §3

Series [6] concerns Pseudomonas aeruginosa efflux− (MB9799), IMP-1. It is filed as cell-based. The note with it: C, D serine β-lactamase inhibitor closely related to relebactam; for P. aeruginosa expressing IMP-1, efflux − (MB9799) MITC95: concentration restoring susceptibility to imipenem at 2 μg/mL in the presence of a class A; for Concentration of metallo-β-lactamase inhibitor which restores susceptibility of efflux − (MB9799) strain to imipenem: imipenem at 2 μg/mL, in the presence of a class A. Summed up: as §2

Setting [7] is: fluorescence assay, read-out: VIM-1 IC50.
Where [8] appears, read: ratio MITC95 PA_9798/MITC95 PA_9799.
[9] abbreviates: fluorescence assay, read-out: IMP-1 IC50.
Where [10] appears, read: fold difference between efflux+ (MB9798) and efflux− (MB9799) strains, imipenem at 2 μg/mL.

pIC50: −log10 of the molar value. Like-named read-outs stand apart in the source and are kept apart here.

As a reminder, the pIC50 is the negative decadic logarithm of the IC50, by convention in mol/L.

Chain of IMP-1 (P52699 whole entry, looked up, species assumed): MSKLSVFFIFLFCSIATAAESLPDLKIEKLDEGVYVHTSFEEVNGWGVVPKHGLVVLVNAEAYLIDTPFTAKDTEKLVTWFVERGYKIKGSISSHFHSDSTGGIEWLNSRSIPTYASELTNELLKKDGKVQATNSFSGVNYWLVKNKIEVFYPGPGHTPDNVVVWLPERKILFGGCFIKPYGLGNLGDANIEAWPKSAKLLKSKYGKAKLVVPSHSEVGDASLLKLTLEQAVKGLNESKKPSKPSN
Chain of NDM-1 (C7C422 whole entry, looked up, species assumed): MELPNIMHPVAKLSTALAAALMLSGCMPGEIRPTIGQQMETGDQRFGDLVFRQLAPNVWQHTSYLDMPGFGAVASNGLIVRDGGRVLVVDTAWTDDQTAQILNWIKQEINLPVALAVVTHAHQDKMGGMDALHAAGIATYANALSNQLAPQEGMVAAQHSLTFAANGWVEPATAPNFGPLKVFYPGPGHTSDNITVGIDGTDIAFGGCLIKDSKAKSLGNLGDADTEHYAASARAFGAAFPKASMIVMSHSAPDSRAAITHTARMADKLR

`Nc1nc2c(-c3ccc(S(=O)(=O)NCCC(N)C(F)(F)F)c(S(N)(=O)=O)c3-c3nnn[nH]3)cccc2s1` (stereo not drawn) [Example 49, 4-(2-amino-1,3-benzothiazol-4-yl)-N1-(3-amino-4,4,4-trifluorobutyl)-3-(1H-tetrazol-5-yl)benzene-1,2-disulfonamide]: the pIC50 was 9.48 at VIM-1 (setting [7]), 9.38 on IMP-1 (setting [9]) and 10.17 on NDM-1. In [1] (setting [8]), the Efflux ratio was determined as 8.00. In series [2], the “P. aeruginosa expressing IMP-1, efflux + (MB9798) MITC95” value was found to be 50 µM. In series [3], the “Serratia marcescens expressing IMP-1 (CL5741) MITC95” value amounted to 12.5 µM. In addition, the “Escherichia coli expressing NDM-1 (CLB30016) MITC95” value in series [4] was determined as 25 µM. Further, the “Klebsiella pneumoniae expressing VIM-1 (IHMA599644) MITC95” value in [5] was 25 µM. Further, in series [6], the “P. aeruginosa expressing IMP-1, efflux − (MB9799) MITC95” value was 6.25 µM.

For `NCc1nc2c(-c3ccc(S(=O)(=O)NC(CN)CN)c(S(N)(=O)=O)c3-c3nn[nH]n3)cccc2[nH]1` [Example 385, 4-(2-(Aminomethyl)-1H-benzo[d]imidazol-4-yl)-N1-(1,3-diaminopropan-2-yl)-3-(2H-tetrazol-5-yl)benzene-1,2-disulfonamide], the pIC50 was 9.89 on VIM-1 (setting [7]), 9.11 at IMP-1 (setting [9]) and 9.95 on NDM-1. For the same compound, the Efflux ratio in [1] (setting [8]) was determined as 1.00. Moreover, in [2], the “P. aeruginosa expressing IMP-1, efflux + (MB9798) MITC95” value amounted to 0.7813 µM. The “Serratia marcescens MITC95” value in series [3] worked out at 0.7813 µM. In addition, the “Escherichia coli MITC95” value in series [4] was 0.7813 µM. In series [5], the “Klebsiella pneumoniae MITC95” value was determined as 1.563 µM. Besides, the “P. aeruginosa expressing IMP-1, efflux − (MB9799) MITC95” value in [6] came to 0.7813 µM.

Consider `NCCNS(=O)(=O)c1ccc(-c2ccccc2NC(=O)CN)c(-c2nn[nH]n2)c1S(N)(=O)=O` [Example 452], for which the pIC50 was 9.00 at VIM-1 (setting [7]), 8.21 on IMP-1 (setting [9]) and 8.76 on NDM-1. The Efflux ratio in series [1] (setting [10]) was found to be 4.00. The “Concentration of metallo-β-lactamase inhibitor which restores susceptibility of efflux + (MB9798) strain to imipenem” value in [2] came out at 6.25. Moreover, in [3], the “Serratia marcescens MITC95” value was determined as 3.125 µM. For the same compound, in series [4], the “Escherichia coli MITC95” value turned out to be 3.125 µM. In [5], the “Klebsiella pneumoniae MITC95” value is 6.25 µM. In addition, the “Concentration of metallo-β-lactamase inhibitor which restores susceptibility of efflux − (MB9799) strain to imipenem” value in series [6] was determined as 1.563.

As to `C[C@@H](N)CNS(=O)(=O)c1ccc(-c2cccc3sc(N)nc23)c(-c2nn[nH]n2)c1S(N)(=O)=O` [Example 390, 4-(2-amino-1,3-benzothiazol-4-yl)-N^1-[(2R)-2-aminopropyl]-3-(2H-tetrazol-5-yl)benzene-1,2-disulfonamide], the pIC50 was 9.48 against VIM-1 (VIM-1 IC50, fluorescence assay); 9.47 on IMP-1 (IMP-1 IC50, fluorescence assay); 10.22 on NDM-1. Also, the Efflux ratio in series [1] (setting [10]) was determined as 0.50. Besides, the “Concentration of metallo-β-lactamase inhibitor which restores susceptibility of efflux + (MB9798) strain to imipenem” value in series [2] was 0.7813. In addition, in series [3], the “Serratia marcescens MITC95” value worked out at 1.563 µM. Besides, the “Escherichia coli MITC95” value in [4] was 3.125 µM. Moreover, in [5], the “Klebsiella pneumoniae MITC95” value was determined as 3.125 µM. Moreover, the “Concentration of metallo-β-lactamase inhibitor which restores susceptibility of efflux − (MB9799) strain to imipenem” value in [6] is listed as 1.563.

For the compound `Nc1nc2c(-c3ccc(S(=O)(=O)N[C@H]4CN[C@H](CO)C4)c(S(N)(=O)=O)c3-c3nnn[nH]3)cccc2s1` [Example 78, 4-(2-amino-1,3-benzothiazol-4-yl)-N1-[(3R,5S)-5-(hydroxymethyl)pyrrolidin-3-yl]-3-(1H-tetrazol-5-yl)benzene-1,2-disulfonamide], the pIC50 against VIM-1 (VIM-1 IC50, fluorescence assay) was 9.74; at IMP-1 (setting [9]), 9.63; at NDM-1, 10.65. Also, in [1] (setting [8]), the Efflux ratio is 0.50. Moreover, the “P. aeruginosa expressing IMP-1, efflux + (MB9798) MITC95” value in series [2] was 0.7813 µM. Besides, the “Serratia marcescens expressing IMP-1 (CL5741) MITC95” value in [3] stood at 1.563 µM. In addition, in series [4], the “Escherichia coli expressing NDM-1 (CLB30016) MITC95” value came out at 3.125 µM. For the same compound, in [5], the “Klebsiella pneumoniae expressing VIM-1 (IHMA599644) MITC95” value was determined as 3.125 µM. Further, the “P. aeruginosa expressing IMP-1, efflux − (MB9799) MITC95” value in series [6] worked out at 1.563 µM.

Consider `N[C@H]1C=C(c2ccc(S(=O)(=O)N[C@@H]3CCNC3)c(S(N)(=O)=O)c2-c2nn[nH]n2)CCC1` [Example 339, (R)-5′-amino-N4-((R)-pyrrolidin-3-yl)-2-(2H-tetrazol-5-yl)-2′,3′,4′,5′-tetrahydro-[1,1′-biphenyl]-3,4-disulfonamide], for which the negative-log IC50 (pIC50) at VIM-1 (VIM-1 IC50, fluorescence assay) was 8.68; at IMP-1 (setting [9]), 7.47; on NDM-1, 7.92. Further, in series [1] (setting [8]), the Efflux ratio was found to be 4.00. Further, the “P. aeruginosa expressing IMP-1, efflux + (MB9798) MITC95” value in series [2] worked out at 6.25 µM. Moreover, in series [3], the “Serratia marcescens MITC95” value turned out to be 1.563 µM. For the same compound, the “Escherichia coli MITC95” value in series [4] came out at 0.7813 µM. The “Klebsiella pneumoniae MITC95” value in [5] is 0.7813 µM. Moreover, in [6], the “P. aeruginosa expressing IMP-1, efflux − (MB9799) MITC95” value was 1.563 µM.

Turning to `CN1CC(NS(=O)(=O)c2ccc(-c3cccc4[nH]c(N)nc34)c(-c3nn[nH]n3)c2S(N)(=O)=O)C1` [Example 256, 4-(2-amino-1H-benzo[d]imidazol-4-yl)-N1-(1-methylazetidin-3-yl)-3-(2H-tetrazol-5-yl)benzene-1,2-disulfonamide], the negative-log IC50 (pIC50) at VIM-1 (setting [7]) was 9.78; on IMP-1 (setting [9]), 9.22; on NDM-1 it was 10.38. For the same compound, in series [1] (setting [8]), the Efflux ratio was found to be 1.00. In addition, in [2], the “P. aeruginosa expressing IMP-1, efflux + (MB9798) MITC95” value is 0.7813 µM. Moreover, the “Serratia marcescens MITC95” value in series [3] is 0.7813 µM. For the same compound, the “Escherichia coli MITC95” value in series [4] was 0.3906 µM. The “Klebsiella pneumoniae MITC95” value in [5] was 1.563 µM. For the same compound, the “P. aeruginosa expressing IMP-1, efflux − (MB9799) MITC95” value in [6] was 0.7813 µM.

On to `NCc1nc2cc(-c3ccc(S(=O)(=O)NC[C@H](O)CN)c(S(N)(=O)=O)c3-c3nn[nH]n3)ccc2s1` [Example 463, (R)—N1-(3-amino-2-hydroxypropyl)-4-(2-(aminomethyl)benzo[d]thiazol-5-yl)-3-(2H-tetrazol-5-yl)benzene-1,2-disulfonamide], for which the pIC50 on VIM-1 (setting [7]) is 10.04; at IMP-1 (setting [9]), 9.49; at NDM-1 it was 9.84. Moreover, the Efflux ratio in series [1] (setting [10]) was determined as 1.00. Also, in series [2], the “Concentration of metallo-β-lactamase inhibitor which restores susceptibility of efflux + (MB9798) strain to imipenem” value is reported as 0.7813. In addition, the “Serratia marcescens MITC95” value in [3] was determined as 0.7813 µM. Also, the “Escherichia coli MITC95” value in series [4] turned out to be 0.7813 µM. In addition, in series [5], the “Klebsiella pneumoniae MITC95” value was determined as 1.563 µM. In addition, the “Concentration of metallo-β-lactamase inhibitor which restores susceptibility of efflux − (MB9799) strain to imipenem” value in series [6] is given as 0.7813.
